SMILES strings stand for the structures.

The data set can be described thus: in vivo. Particulars: female, Sprague Dawley, rat, iv, 0.006 mg.

Protocol: Specifically, LNG pharmacokinetics were evaluated in adult female Sprague Dawley rats (200±12 g) by applying a LNG-loaded microneedle patch to each rat while under isoflurane anesthesia. The rats' dorsal skin was shaved before application of microneedle patches, taking care not to damage skin during shaving.
Plasma was then separated by centrifuging blood samples at 2000 g for 15 minutes at 4° C., and underwent subsequent analysis by enzyme-linked immunosorbent assay (ELISA, Thermo Fisher Scientific) following the manufacturer's instruction to determine LNG concentration.
Pharmacokinetic parameters were calculated using non-compartmental pharmacokinetic analysis. […] Bioavailability of LNG delivered from microneedles was calculated from the ratio of dose-normalized AUC values after microneedle patch administration and intravenous LNG injection.

The molecule `C#C[C@]1(O)CC[C@H]2[C@@H]3CCC4=CC(=O)CC[C@@H]4[C@H]3CC[C@@]21CC` [LNG, levonorgestrel] gave an AUC(0-inf) of 17.2 ± 0.3 ng·h/mL, an AUC(0-t) of 17.2 ± 0.3 ng·h/mL and a half-life of 20.7 ± 0.6 h.

A word on the AUC(0-inf): it is total exposure, with the tail of the curve extrapolated. A higher AUC(0-inf) goes with high exposure. As usually defined, the AUC(0-t) is exposure summed from dosing to a finite time, without extrapolation to infinity. As a reminder, the half-life is the time needed for the level to fall by half in the phase considered. A lower half-life goes with rapid decline.
